Data as given in patent US20090169583A1, “Solid Adsorbates of Hydrophobic Drugs” (Pfizer, Inc., priority 2005, published 2009).

Tests used:
[1] = microcentrifuge dissolution test (in vitro evaluation of concentration enhancement); type: physicochemical; conditions: for AUC: area under concentration-versus-time curve in PBS pH 6.5, 37° C.; for Concentration: dissolved torcetrapib in supernatant, 1000 μg/mL if all drug dissolved
Description: The solid composition of Example 1 was evaluated in vitro using a microcentrifuge dissolution test as follows. For this test, a sufficient amount of material was added to a microcentrifuge test tube so that the concentration of torcetrapib would have been 1000 μg/mL, if all of the drug had dissolved. The test was run in duplicate. The tubes were placed in a 37° C. temperature-controlled chamber, and 1.8 mL PBS at pH 6.5 and 290 mOsm/kg was added to each respective tube. The samples were quickly mixed using a vortex mixer for about 60 seconds. The samples were centrifuged at 13,000 G at 37° C. for 1 minute. The resulting supernatant solution was then sampled and diluted 1:6 (by volume) with methanol and then analyzed by HPLC. The contents of each tube were mixed on the vortex mixer and allowed to stand undisturbed at 37° C. until the next sample was taken. Samples were collected at 4, 10, 20, 40, 90, and 1200 minutes. Control 1 (C1) consisted of crystalline torcetrapib alone, and a sufficient amount of material was added so that the concentration of drug would have been 1000 μg/mL, if all of the drug had dissolved. The concentrations of drug obtained in these samples were used to determine the maximum drug concentration (“MDC90”) and the area under the concentration-versus-time curve (“AUC90”) during the initial ninety minutes.

aqueous solubility = type: physicochemical; conditions: aqueous medium; aqueous solubility determined at about 22° C. unless otherwise specified
Description: A second property of hydrophobic drugs is that they have low aqueous solubility. […] Extremely low aqueous solubility often leads to poor or slow absorption of the drug from the fluid of the gastrointestinal tract, when the drug is dosed orally in a conventional manner. For extremely low solubility drugs, absorption generally becomes progressively more difficult as the dose (mass of drug given orally) increases. Thus, a third property of hydrophobic drugs is a very high dose (in mg) to solubility (In mg/ml) ratio (ml). By “very high dose-to-solubility ratio” is meant that the dose-to-solubility ratio may have a value of at least 1000 ml, at least 5,000 ml, or even at least 10,000 ml. The dose-to-solubility ratio may be determined by dividing the dose (in mg) by the aqueous solubility (in mg/ml).
CETP inhibitors, in particular torcetrapib, and methods for preparing such compounds are disclosed in detail in U.S. Pat. Nos. 6,197,786 and 6,313,142, in PCT Application Nos. WO 01/40190A1, WO 02/088085A2, and WO 02/088069A2, the disclosures of which are herein incorporated by reference. Torcetrapib has an unusually low solubility in aqueous environments such as the lumenal fluid of the human GI tract. The aqueous solubility of torcetrapib is less than about 0.04 μg/ml. […]

[2] = during the initial ninety minutes, PBS pH 6.5, 37° C.

In the case of `CCOC(=O)N1c2ccc(C(F)(F)F)cc2[C@@H](N(Cc2cc(C(F)(F)F)cc(C(F)(F)F)c2)C(=O)OC)C[C@H]1CC` [torcetrapib, [2R,4S]-4-[(3,5-bis-trifluoromethyl-benzyl)-methoxycarbonyl-amino]-2-ethyl-6-trifluoromethyl-3,4-dihydro-2H-quinoline-1-carboxylic acid ethyl ester], the AUC ([1]; up to time 0 min) is reported as 0 µg·min/mL, the AUC ([1]; up to time 4 min) is reported as less than 2 µg·min/mL and the AUC ([1]; up to time 10 min) is reported as less than 8 µg·min/mL. For the same molecule, the AUC ([1]; up to time 20 min) was less than 18 µg·min/mL, the AUC ([1]; up to time 40 min) was less than 38 µg·min/mL and the AUC ([1]; up to time 90 min) was less than 88 µg·min/mL. For the same molecule, the AUC ([1]; up to time 1200 min) was <1,200 min*μg/mL, the C1200 ([1]; concentration at 1200 minutes, PBS pH 6.5, 37° C.) was less than 1 µg/mL and the Concentration ([1]; PBS pH 6.5, 37° C., time 0 min) was 0 ng/mL. It also gave a Concentration ([1]; PBS pH 6.5, 37° C., time 4 min) of less than 1000 ng/mL, a Concentration ([1]; PBS pH 6.5, 37° C., time 10 min) of less than 1000 ng/mL and a Concentration ([1]; PBS pH 6.5, 37° C., time 20 min) of less than 1000 ng/mL. For the same molecule, the Concentration ([1]; PBS pH 6.5, 37° C., time 40 min) was less than 1000 ng/mL, the Concentration ([1]; PBS pH 6.5, 37° C., time 90 min) was less than 1000 ng/mL and the Concentration ([1]; PBS pH 6.5, 37° C., time 1200 min) was less than 1000 ng/mL. The “AUC90 (area under the concentration-versus-time curve)” value [1, 2] was less than 88 µg·min/mL, the “MDC90 (maximum drug concentration)” value [1, 2] was less than 1 µg/mL and the solubility (aqueous solubility) was less than 0.04 µg/mL.
